These results are taken from patent publication US8741659B2, “Composition for measuring the binding affinity between nucleic acid and test substance, and use thereof” (Osaka University, priority 2007, dated 2014).

For one assay, the system named is RRE. The experiment in a line: Displacement assay using X2S. The assay is classed as binding, HIV-1. The text has this: In this Example, X2S was used to measure a binding affinity between a test substance and RRE. As the test substance, Rev protein (supplied by Professor Takashi MORII, Graduates School of Energy Science, Kyoto University), aminoglycoside antibiotic neomycin (available from Sigma-Aldrich, product number; N-1876) (hereinafter, simply referred to as “neomycin”), and thrombin (available from Bachem, product number; AG H-8550) were used. […] The structure of Rev protein is shown in FIG. 9, and the amino acid sequence of Rev protein is shown in SEQ ID NO: 5. FIG. 9 is a view schematically illustrating the structure of Rev protein. Further, the structure of thrombin is shown in FIG. 10, and the amino acid sequence of thrombin is shown in SEQ ID NO: 6. FIG. 10 is a view schematically illustrating the structure of thrombin.
Firstly, in the same manner as in Example 3, X2S and RRE were dissolved in a cacodylate buffer solution (sodium cacodylate: 10 mM, pH 7.0; NaCl: 100 mM) each at 2 μM. Thus, an X2S-RRE solution was prepared.
To the X2S-RRE solution, Rev protein was added in steps at 0 μM, 0.4 μM, 0.8 μM, 1.2 μM, 1.6 μM, 2.0 μM, 2.4 μM, 2.8 μM, 3.2 μM, 3.6 μM, and 4.0 μM. Further, a fluorescence intensity was measured at each concentration. Similarly, to the X2S-RRE solution, neomycin was added in steps at 0 μM, 0.4 μM, 0.8 μM, 1.2 μM, 1.6 μM, 2.0 μM, 2.4 μM, 2.8 μM, 3.2 μM, 3.6 μM, and 4.0 μM. Further, a fluorescence intensity was measured at each concentration. Similarly, to the X2S-RRE solution, thrombin was added in steps at 0 μM, 0.4 μM, 0.8 μM, 1.2 μM, 1.6 μM, 2.0 μM, 2.4 μM, 2.8 μM, 3.2 μM, 3.6 μM, and 4.0 μM. Further, a fluorescence intensity was measured at each concentration. The fluorescence intensities were measured in the same manner as that described in Example 2.
FIG. 11 is a view illustrating a result of the measurement of a binding affinity between Rev protein and RRE; FIG. 12 is a view illustrating a result of the measurement of a binding affinity between neomycin and RRE; and FIG. 13 is a view illustrating a result of the measurement of a binding affinity between thrombin and RRE. In each of FIGS. 11 to 13, the horizontal axis represents the fluorescence wavelength, whereas the vertical axis represents the fluorescence intensity. […] Furthermore, along the direction of the arrow extending from the curved line at the bottom, the curved lines are arranged in order of increasing amount of the test substance which was added.
FIG. 14 is a view plotting the fluorescence intensities at a fluorescence wavelength of 453 nm shown in the results illustrated in FIGS. 11 to 13. The horizontal axis represents the concentration of each test substance, whereas the vertical axis represents the fluorescence intensity. In FIG. 14, the circle marks represent the result obtained in the case involving use of Rev protein, the square marks represent the result obtained in the case involving use of neomycin, and the triangle marks represent the result obtained in the case involving use of thrombin.
A displacement assay using X2S was performed in the same manner as that described in Example 5, except that, in this Example, fluorescence was measured also when Rev protein was added at concentrations of 4.4 μM and 4.8 μM.
FIG. 16 is a view illustrating the result of the displacement assay using X2S. The horizontal axis represents the fluorescence wavelength, whereas the vertical axis represents the fluorescence intensity.

Assay [1] relates to single strand RNA (ssRNA), SEQ ID NO: 7. Description: Binding between X2S and single strand RNA. The method, then:
In this Example, binding between X2S and a single strand RNA (hereinafter, referred to as “ssRNA”) was evaluated. Specifically, the evaluation was performed in the same manner as that described in Example 2. However, the evaluation performed in this Example differed from that performed in Example 2 in the following points: Instead of the double strand RNA, an ssRNA was used; The ssRNA was added in steps at 0 μM, 1 μM, 2 μM, 3 μM, 4 μM, 5 μM, 6 μM, 7 μM, and 8 μM; The ssRNA was purchased from: Hokkaido System Science Co., Ltd. The sequence of the ssRNA is shown in SEQ ID NO: 7.
FIG. 18 is a view illustrating the result of the evaluation of binding between X2S and the ssRNA. The horizontal axis represents the fluorescence wavelength, whereas the vertical axis represents the fluorescence intensity.

For `NCCOc1ccc2oc3ccc(OCCN)cc3c(=O)c2c1` [X2S, 2,7-bis(2-aminoethoxy)xanthen-9-one], the “change in the fluorescence intensity, X2S compared with ethidium bromide” value in the assay on RRE (FIG. 11 compared with FIG. 15) is “greater in the case involving use of X2S than in the case involving use of ethidium bromide”. In addition, in the assay on RRE (Rev protein up to 4.8 μM), the “concentration at which a change in fluorescence intensity was still clearly observed” value worked out at 3.2 µM and the “ultimate increase of fluorescence intensity” value is “approximately 80%”. In assay [1] (0 μM versus 8 μM ssRNA), the “amount of change of fluorescence intensity” value is “approximately 50%”. Moreover, in assay [1] (ssRNA 0-8 μM), the “binding to ssRNA” value is given as “binds to an ssRNA”.
